Molecular target: T1, Anthrax Lethal Factor (ALF) (Bacillus anthracis, UniProt P15917)
Test: not given
Format: biochemical
Conditions: not given

T1 sequence (P15917 34-809 limits assumed): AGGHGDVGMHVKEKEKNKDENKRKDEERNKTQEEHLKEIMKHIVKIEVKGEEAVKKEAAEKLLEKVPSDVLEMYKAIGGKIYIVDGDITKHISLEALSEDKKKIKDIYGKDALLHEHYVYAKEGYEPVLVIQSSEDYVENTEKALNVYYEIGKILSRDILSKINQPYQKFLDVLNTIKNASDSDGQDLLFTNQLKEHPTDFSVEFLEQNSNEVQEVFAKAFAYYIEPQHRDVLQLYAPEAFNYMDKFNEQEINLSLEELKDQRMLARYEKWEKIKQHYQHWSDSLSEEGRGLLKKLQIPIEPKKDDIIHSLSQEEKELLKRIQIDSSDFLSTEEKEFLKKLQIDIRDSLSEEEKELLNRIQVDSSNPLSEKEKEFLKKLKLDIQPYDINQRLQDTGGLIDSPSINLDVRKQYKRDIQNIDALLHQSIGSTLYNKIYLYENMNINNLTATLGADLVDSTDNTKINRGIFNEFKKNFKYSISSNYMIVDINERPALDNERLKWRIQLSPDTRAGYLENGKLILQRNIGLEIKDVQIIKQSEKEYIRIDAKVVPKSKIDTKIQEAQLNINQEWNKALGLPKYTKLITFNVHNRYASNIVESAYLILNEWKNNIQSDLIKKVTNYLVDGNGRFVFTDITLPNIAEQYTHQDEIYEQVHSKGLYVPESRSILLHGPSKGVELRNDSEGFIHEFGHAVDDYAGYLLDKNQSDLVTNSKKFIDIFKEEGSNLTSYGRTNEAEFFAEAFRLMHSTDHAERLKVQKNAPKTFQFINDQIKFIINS

In order of falling “Activity by Gel, % @ 200” value:
1. O=c1c(Cc2ccccc2)nc(-c2ccccc2)c(-c2ccccc2)n1O [Compound 5, 1-hydroxy-5,6-diphenyl-3-benzylhydropyrazin-2-one]  45% @ 200
2. CC(C)c1nc(-c2ccccc2)c(-c2ccccc2)n(O)c1=O [Compound 1, 3-isoprpyl-5,6dipheny-1-1-hydroxy-2-oxo-1,2-dihydropyrazine]  0% @ 200
3. CCc1nc(C(C)C)c(=O)n(O)c1CC [Compound 2, 3-isopropyl-5,6diethyl-1-hydroxy-2-oxo-1,2dihydropyrazine]  0% @ 200
4. Cc1c(-c2ccccc2)nc(CC(C)C)c(=O)n1O [Compound 3, 1-hydroxy-6-methyl-3-(2-methylpropyl)-5-phenylhydropyrazin-2-one]  0% @ 200
5. CC(C)Cc1nc(-c2ccccc2)cn(O)c1=O [Compound 4, 1-hydroxy-3-(2-methylpropyl)-5-phenylhydropyrazin-2-one]  0% @ 200

For `O=c1c(Cc2ccc(-c3ccccc3)cc2)nc(-c2ccccc2)c(-c2ccccc2)n1O` [Compound 11, 3-(4′-phenyl)-benzyl-5,6diphenyl-1-hydroxy-2-oxo-1,2-dihydropyrazine], the “Activity by Gel, % @ 100” value was 2% @ 100.

Molecular target: T1, Anthrax Lethal Factor (ALF)
Test: biochemical
Format: biochemical
Conditions: not given

In order of falling IC50:
1. Cc1c(-c2ccccc2)nc(Cc2ccccc2)c(=O)n1O [Compound 6, 1-hydroxy-6-methyl-5-phenyl-3-benzylhydropyrazin-2-one]  70 µM
2. O=c1c(Cc2ccccc2)nc(-c2ccccc2)cn1O [Compound 7, 1-hydroxy-5-phenyl-3-benzylhydropyrazin-2-one]  15 µM
3. Cc1c(-c2ccccc2)nc(Cc2ccc(-c3ccccc3)cc2)c(=O)n1O [Compound 12, 3-(4′-phenyl)-benzyl-5-phenyl-6-methyl-1-hydroxy-2-oxo-1,2-dihydropyrazine]  15 µM
4. O=c1c(Cc2ccc(-c3ccccc3)cc2)nc(-c2ccc(-c3ccccc3)cc2)cn1O [Compound 28, 1-hydroxy-5-(4-phenylphenyl)-3-[(4-phenylphenyl)methyl]hydropyrazin-2-one]  12 µM
5. O=c1c(Cc2ccccc2)nc(-c2ccc(C3CCCCC3)cc2)cn1O [Compound 18, 5-(4-cyclohexylphenyl)-1-hydroxy-3-benzylhydropyrazin-2-one]  8 µM
6. O=c1c(Cc2ccccc2)nc(-c2ccccc2)c(-c2ccccc2)n1O [Compound 5, 1-hydroxy-5,6-diphenyl-3-benzylhydropyrazin-2-one]  6 µM
7. O=c1c(Cc2ccc(-c3ccccc3)cc2)nc(-c2ccc(Br)cc2)cn1O [Compound 31, 5-(4-bromophenyl)-1-hydroxy-3-[(4-phenylphenyl)methyl]hydropyrazin-2-one]  5 µM

In order of rising “Activity by plate, % @ 100” value:
1. O=c1c(Cc2ccccc2)nc(-c2ccc(N3CCOCC3)cc2)cn1O [Compound 14, 1-hydroxy-5-(4-morpholin-4-ylphenyl)-3-benzylhydropyrazin-2-one]  0% @ 100
2. O=c1c(Cc2ccccc2)nc(-c2ccc(C(F)(F)F)cc2)cn1O [Compound 43, 1-hydroxy-3-benzyl-5-[4-(trifluoromethyl)phenyl]hydropyrazin-2-one]  0% @ 100
3. O=c1c(Cc2ccccc2)nc(-c2ccc(O)cc2)cn1O [Compound 21, 1-hydroxy-5-(4-hydroxyphenyl)-3-benzylhydropyrazin-2-one]  7% @ 100
4. O=c1c(Cc2ccccc2)nc(-c2ccc([N+](=O)[O-])cc2)cn1O [Compound 23, 1-hydroxy-5-(4-nitrophenyl)-3-benzylhydropyrazin-2-one]  7% @ 100
5. O=c1c(Cc2ccc(-c3ccccc3)cc2)nc(-c2ccc(F)cc2)cn1O [Compound 27, 5-(4-fluorophenyl)-1-hydroxy-3-[(4-phenylphenyl)methyl]hydropyrazin-2-one]  12% @ 100
6. Cc1ccc(-c2cn(O)c(=O)c(Cc3ccccc3)n2)cc1 [Compound 41, 1-hydroxy-5-(4-methylphenyl)-3-benzylhydropyrazin-2-one]  13% @ 100
7. CCCCCc1ccc(-c2cn(O)c(=O)c(Cc3ccccc3)n2)cc1 [Compound 42, 1-hydroxy-5-(4-pentylphenyl)-3-benzylhydropyrazin-2-one]  16% @ 100
8. Cc1cc(-c2cn(O)c(=O)c(Cc3ccccc3)n2)ccc1Cl [Compound 40, 5-(4-chloro-3-methylphenyl)-1-hydroxy-3-benzylhydropyrazin-2-one]  18% @ 100
9. CC(=O)Nc1ccc(-c2cn(O)c(=O)c(Cc3ccccc3)n2)cc1 [Compound 25, N-{4-[4-hydroxy-5-oxo-6-benzyl-4-hydropyrazin-2-yl]phenyl}acetamide]  19% @ 100
10. O=c1c(Cc2ccc(-c3ccccc3)cc2)nc(-c2ccc(C(F)(F)F)cc2)cn1O [Compound 48, 1-hydroxy-3-[(4-phenylphenyl)methyl]-5-[4-(trifluoromethyl)phenyl] hydropyrazin-2-one]  25% @ 100
11. O=c1c(Cc2ccccc2)nc(-c2ccc(F)cc2)cn1O [Compound 15, 5-(4-fluorophenyl)-1-hydroxy-3-benzylhydropyrazin-2-one]  33% @ 100
12. O=c1c(Cc2ccccc2)nc(-c2cccs2)cn1O [Compound 16, 1-hydroxy-3-benzyl-5-(2-thienyl)hydropyrazin-2-one]  33% @ 100
13. O=c1c(Cc2ccc(-c3ccccc3)cc2)nc(-c2ccc(N3CCOCC3)cc2)cn1O [Compound 26, 1-hydroxy-5-(4-morpholin-4-ylphenyl)-3-[(4-phenylphenyl)methyl] hydropyrazin-2-one]  37% @ 100
14. O=c1c(Cc2ccccc2)nc(-c2ccc3c(c2)OCO3)cn1O [Compound 22, 5-(2H-benzo[d]1,3-dioxolen-5-yl)-1-hydroxy-3-benzylhydropyrazin-2-one]  39% @ 100
15. CCCCCc1ccc(-c2cn(O)c(=O)c(Cc3ccc(-c4ccccc4)cc3)n2)cc1 [Compound 47, 1-hydroxy-5-(4-pentylphenyl)-3-[(4-phenylphenyl)methyl]hydropyrazin-2-one]  39% @ 100
16. O=c1c(Cc2ccc(-c3ccccc3)cc2)nc(-c2ccc3c(c2)OCO3)cn1O [Compound 32, 5-(2H-benzo[d]1,3-dioxolen-5-yl)-1-hydroxy-3-[(4-phenylphenyl)methyl] hydropyrazin-2-one]  40% @ 100
17. O=c1c(Cc2ccccc2)nc(-c2ccc(-c3ccccc3)cc2)cn1O [Compound 17, 1-hydroxy-3-benzyl-5-(4-phenylphenyl)hydropyrazin-2-one]  41% @ 100
18. N#Cc1ccc(-c2cn(O)c(=O)c(Cc3ccccc3)n2)cc1 [Compound 24, 4-[4-hydroxy-5-oxo-6-benzyl-4-hydropyrazin-2-yl]benzenecarbonitrile]  41% @ 100
19. O=c1c(Cc2ccccc2)nc(-c2ccc(Cl)c(Cl)c2)cn1O [Compound 39, 5-(3,4-dichlorophenyl)-1-hydroxy-3-benzylhydropyrazin-2-one]  45% @ 100
20. O=c1c(Cc2ccc(-c3ccccc3)cc2)nc(-c2ccc(Cl)c(Cl)c2)cn1O [Compound 44, 5-(3,4-dichlorophenyl)-1-hydroxy-3-[(4-phenylphenyl)methyl] hydropyrazin-2-one]  45% @ 100
21. Cc1ccc(-c2cn(O)c(=O)c(Cc3ccc(-c4ccccc4)cc3)n2)cc1 [Compound 46, 1-hydroxy-5-(4-methylphenyl)-3-[(4-phenylphenyl)methyl]hydropyrazin-2-one]  46% @ 100
22. Cc1cc(-c2cn(O)c(=O)c(Cc3ccc(-c4ccccc4)cc3)n2)ccc1Cl [Compound 45, 5-(4-chloro-3-methylphenyl)-1-hydroxy-3-[(4-phenylphenyl)methyl] hydropyrazin-2-one]  47% @ 100
23. N#Cc1ccc(-c2cn(O)c(=O)c(Cc3ccc(-c4ccccc4)cc3)n2)cc1 [Compound 33, 4-{4-hydroxy-5-oxo-6-[(4-phenylphenyl)methyl]-4-hydropyrazin-2-yl} benzenecarbonitrile]  51% @ 100
24. O=c1c(Cc2ccc(-c3ccccc3)cc2)nc(-c2ccc3ccccc3c2)cn1O [Compound 30, 1-hydroxy-5-(2-naphthyl)-3-[(4-phenylphenyl)methyl]hydropyrazin-2-one]  54% @ 100
25. O=c1c(Cc2ccccc2)nc(-c2ccc3ccccc3c2)cn1O [Compound 19, 1-hydroxy-5-(2-naphthyl)-3-benzylhydropyrazin-2-one]  59% @ 100
26. O=c1c(Cc2ccc(-c3ccccc3)cc2)nc(-c2ccc(C3CCCCC3)cc2)cn1O [Compound 29, 5-(4-cyclohexylphenyl)-1-hydroxy-3-[(4-phenylphenyl)methyl] hydropyrazin-2-one]  59% @ 100
27. O=c1c(Cc2ccccc2)nc(-c2ccc(Br)cc2)cn1O [Compound 20, 5-(4-bromophenyl)-1-hydroxy-3-benzylhydropyrazin-2-one]  63% @ 100

Tested on: B anthracis
Test: not given
Conditions: monkey, in vivo; cited from earlier work

For `O=C(O)c1cn(C2CC2)c2cc(N3CCNCC3)c(F)cc2c1=O` [ciprofloxacin], the “monkeys that survived a lethal aerosol challenge” value is given as 8 of 9.
In the case of penicillin, the “monkeys that survived a lethal aerosol challenge” value is listed as 7 of 10.

Source: patent US6436933B1 (priority 2001, dated 2002)
